# What was measured:
# TNFα = TNFα inhibition assay in PBMC (LPS-stimulated); assay type: cell-based; details: Homo sapiens; PBMC stimulated with LPS 1 ng/ml; TNFα by ELISA; read-out: IC50 for inhibiting TNFα
# Procedure: Peripheral blood mononuclear cells (PBMC) from normal donors are obtained by Ficoll Hypaque (Pharmacia, Piscataway, N.J., USA) density centrifugation. Cells are cultured in RPMI 1640 (Life Technologies, Grand Island, N.Y., USA) supplemented with 10% AB+human serum (Gemini Bio-products, Woodland, Calif., USA), 2 mM L-glutamine, 100 U/ml penicillin, and 100 μg/ml streptomycin (Life Technologies).
# PBMC (2×10^5 cells) are plated in 96-well flat-bottom Costar tissue culture plates (Corning, N.Y., USA) in triplicate. Cells are stimulated with LPS (from Salmonella abortus equi, Sigma cat. no. L-1887, St. Louis, Mo. USA) at 1 ng/ml final in the absence or presence of compounds. Compounds provided herein are dissolved in DMSO (Sigma) and further dilutions are done in culture medium immediately before use. The final DMSO concentration in all assays can be about 0.25%. Compounds are added to cells 1 hour before LTS stimulation. Cells are then incubated for 18-20 hours at 37° C. in 5% CO2, and supernatants are then collected, diluted with culture medium and assayed for TNFα levels by ELISA (Endogen, Boston, Mass. USA). IC50s are calculated using non-linear regression, sigmoidal dose-response, constraining the top to 100% and bottom to 0%, allowing variable slope (GraphPad Prism v3.02).
# PDE 4 = PDE 4 inhibition assay; assay type: biochemical, human; details: crude PDE 4 enzyme from U937 cells; 1 μM cAMP; read-out: IC50 for inhibiting PDE 4
# Procedure: PDE 4 inhibition may be assays using any methods conventionally known in the art. For example, using a modification of the method of Hill and Mitchell [Hill and Mitchell, Faseb J., 8, A217 (1994)], U937 cells (a human promonocytic cell line) are grown to 1×10^6 cells/mL and collected by centrifugation. A cell pellet of 1×10^9 cells is washed in phosphate buffered saline and then frozen at −70° C. for later purification or immediately lysed in cold homogenization buffer (20 mM Tris-HCl, pH 7.1, 3 mM 2-mercaptoethanol, 1 mM magnesium chloride, 0.1 mM ethylene glycol-bis-(β-aminoethyl ether)-N,N,N^1,N^1-tetraacetic acid (EGTA), 1 μM phenylmethylsulfonyl fluoride (PMSF), and 1 μg/mL leupeptin). Cells are homogenized with 20 strokes in a Dounce homogenizer and the supernatant containing the cytosolic fraction are obtained by centrifugation. The supernatant is then loaded onto a Sephacryl S-200 column equilibrated in homogenization buffer. […]
# The phosphodiesterase assay is carried out based on the procedure described by Hill and Mitchell. […] Each data point is carried out in duplicate and activity is expressed as percentage of control. The IC50s of the compounds are then determined from dose response curves of a minimum of three independent experiments.
smiles,measurement,setting,value
"CCOc1cc([C@@H](CS(C)(=O)=O)N2C(=O)c3cccc(NC(=O)CO)c3C2=O)ccc1OC [(1S)—N-{2-[1-(3-Ethoxy-4-Methoxy-Phenyl)-2-Methanesulfonyl-Ethyl]-1,3-Dioxo-2,3-Dihydro-1H-Isoindol-4-yl}-2-Hydroxy-Acetamide]",IC50,TNFα,~200 nM
same,IC50,PDE 4,~10 nM
